Results as given in ChEMBL document CHEMBL6134800, “Applications of innovative synthetic strategies in anticancer drug discovery: The driving force of new chemical reactions” (Bioorg Med Chem Lett, 2025).
Values after ≈ are worked out from the molar mass of the structure shown. Values belong to the compound of their own block, whether it stands above or below them.

Experiments:
MCF7 [1] = assay: Cytotoxicity against human MCF7 cells assessed as reduction in cell viability incubated for 48 hrs by SRB assay; format: functional, cell-based; settings: MCF7, 48 h
DU-145 = assay: Cytotoxicity against human DU-145 cells assessed as reduction in cell viability incubated for 48 hrs by SRB assay; format: functional, cell-based; settings: DU-145, 48 h
MDA-MB-231 [2] = assay: Cytotoxicity against human MDA-MB-231 cells assessed as reduction in cell viability incubated for 48 hrs by SRB assay; format: functional, cell-based; settings: MDA-MB-231, 48 h
HepG2 [3] = assay: Cytotoxicity against human HepG2 cells assessed as reduction in cell viability incubated for 48 hrs by SRB assay; format: functional, cell-based; settings: HepG2, 48 h
HeLa [4] = assay: Cytotoxicity against human HeLa cells assessed as reduction in cell viability incubated for 48 hrs by SRB assay; format: functional, cell-based
Bacillus subtilis = assay: Antibacterial activity against Bacillus subtilis assessed as reduction in bacterial growth; format: functional, organism-based
BXPC-3 = assay: Antiproliferative activity against human BXPC-3 cells assessed as reduction in cell growth incubated for 72 hrs by MTT assay; format: functional, cell-based; settings: bxpc-3
HeLa [5] = assay: Antiproliferative activity against human HeLa cells assessed as reduction in cell viability incubated for 48 hrs by MTT assay; format: functional, cell-based
A549 [6] = assay: Cytotoxicity against human A549 cells assessed as reduction in cell growth by resazurin assay; format: functional, cell-based
NIH3T3 = assay: Cytotoxicity against mouse NIH/3T3 cells assessed as reduction in cell growth by resazurin assay; format: functional, cell-based
HL-60 = assay: Cytotoxicity against human HL-60 cells assessed as reduction in cell growth by resazurin assay; format: functional, cell-based
Escherichia coli = assay: Antimicrobial activity against Escherichia coli assessed as reduction in microbial growth; format: functional, organism-based
MDA-MB-231 [7] = assay: Antiproliferative activity against human MDA-MB-231 cells; format: functional, cell-based
T47D = assay: Antiproliferative activity against human T47D cells; format: functional, cell-based
MCF7 [8] = assay: Antiproliferative activity against human MCF7 cells; format: functional, cell-based
LoVo = assay: Antiproliferative activity against human LoVo cells; format: functional, cell-based
HCT-116 [9] = assay: Antiproliferative activity against human HCT-116 cells; format: functional, cell-based
[10] = target: Cyclin-dependent kinases regulatory subunit 1/S-phase kinase-associated protein 2 (Homo sapiens) (UniProt P61024+Q13309); assay: Inhibition of SKP2/CKS1 (unknown origin) protein-protein interaction at 50 uM relative to control; format: protein assay
Sequence of Cyclin-dependent kinases regulatory subunit 1/S-phase kinase-associated protein 2 (Homo sapiens) (P61024 2-79 limits assumed): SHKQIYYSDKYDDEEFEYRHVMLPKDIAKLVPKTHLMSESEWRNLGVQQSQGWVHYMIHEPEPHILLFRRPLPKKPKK
Sequence of Cyclin-dependent kinases regulatory subunit 1/S-phase kinase-associated protein 2 (Homo sapiens) (Q13309 whole entry partner): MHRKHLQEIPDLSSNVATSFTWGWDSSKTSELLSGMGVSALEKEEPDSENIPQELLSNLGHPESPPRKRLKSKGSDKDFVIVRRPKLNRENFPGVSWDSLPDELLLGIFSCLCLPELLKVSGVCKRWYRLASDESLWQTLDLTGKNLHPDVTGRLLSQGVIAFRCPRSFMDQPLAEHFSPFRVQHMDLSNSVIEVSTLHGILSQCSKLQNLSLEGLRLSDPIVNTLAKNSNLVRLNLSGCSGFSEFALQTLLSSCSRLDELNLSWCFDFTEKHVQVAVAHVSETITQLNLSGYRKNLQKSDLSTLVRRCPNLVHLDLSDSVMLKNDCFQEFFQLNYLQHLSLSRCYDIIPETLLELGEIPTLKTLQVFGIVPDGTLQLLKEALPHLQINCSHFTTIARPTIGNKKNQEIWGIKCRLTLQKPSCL

A549 [11] = assay: Cytotoxicity against human A549 cells assessed as reduction in cell viability by MTT assay; format: functional, cell-based
MCF7 [12] = assay: Cytotoxicity against human MCF7 cells assessed as reduction in cell viability by MTT assay; format: functional, cell-based
[13] = Cytotoxicity against human BEAS-2B cells assessed as reduction in cell viability by MTT assay; format: toxicity, cell-based
HeLa [14] = assay: Antiproliferative activity against human HeLa cells assessed as reduction in cell viability incubated for 24 hrs by MTT assay; format: functional, cell-based
A549 [15] = assay: Antiproliferative activity against human A549 cells assessed as reduction in cell viability incubated for 24 hrs by MTT assay; format: functional, cell-based; settings: A549, 24 h
HCT-116 [16] = assay: Antiproliferative activity against human HCT-116 cells assessed as reduction in cell viability incubated for 24 hrs by MTT assay; format: functional, cell-based; settings: HCT-116, 24 h
HeLa [17] = assay: Antiproliferative activity against human HeLa cells assessed as reduction in cell growth by MTT assay; format: functional, cell-based
A549 [18] = assay: Antiproliferative activity against human A549 cells assessed as reduction in cell growth by MTT assay; format: functional, cell-based
[19] = Antioxidant activity assessed as hydroxyl radical scavenging activity; format: functional
A549 [20] = assay: Growth inhibition of human A549 cells measured for 48 hrs by SRB assay; format: functional
PC-3 = assay: Growth inhibition of human PC-3 cells measured for 48 hrs by SRB assay; format: functional
MCF7 [21] = assay: Growth inhibition of human MCF7 cells measured for 48 hrs by SRB assay; format: functional
HepG2 [22] = assay: Growth inhibition of human HepG2 cells measured for 48 hrs by SRB assay; format: functional
[23] = Antioxidant activity assessed as DPPH radical scavenging activity; format: functional

Structure (SMILES): CCOC(=O)c1sc(-c2ccc(OCC(C)C)c(C(Nc3ccc(OC)cc3)P(=O)(OCC)OCC)c2)nc1C (centres undefined)
- IC50 (MCF7 [1]): 12.5 µg/mL (≈ 21.2 µM)
- IC50 (DU-145): 3.02 µg/mL (≈ 5.11 µM)
- IC50 (MDA-MB-231 [2]): 8.18 µg/mL (≈ 13.8 µM)
- IC50 (HepG2 [3]): 22 µg/mL (≈ 37.3 µM)
- IC50 (HeLa [4]): 10.7 µg/mL (≈ 18.1 µM)

Structure (SMILES): CN[C@@H]1[C@@H](O)[C@@H](O[C@@H]2[C@@H](O)[C@H](O[C@H]3O[C@H](CN)CC[C@H]3N)[C@@H](N)C[C@H]2N)OC[C@]1(C)O [GENTAMICIN C1A]
- IC50 (Bacillus subtilis): 0.115 µM

- IC50 (BXPC-3): 8.6 µM
Structure (SMILES): Cc1ccc([C@H]2NC(=O)n3c(cc4ccccc43)C23CC3)cc1 (stereo in doubt; 16a)

Structure (SMILES): CCOC(=O)c1sc(-c2ccc(OCC(C)C)c(C(Nc3ccc([N+](=O)[O-])cc3)P(=O)(OCC)OCC)c2)nc1C (centres undefined)
- IC50 (MCF7 [1]): 12.3 µg/mL (≈ 20.3 µM)
- IC50 (DU-145): 2.13 µg/mL (≈ 3.52 µM)
- IC50 (MDA-MB-231 [2]): 6.3 µg/mL (≈ 10.4 µM)
- IC50 (HepG2 [3]): 20.9 µg/mL (≈ 34.5 µM)
- IC50 (HeLa [4]): 9.6 µg/mL (≈ 15.9 µM)

- IC50 (HeLa [5]): 23.8 µM
Structure (SMILES): Cc1nn(-c2ccc(C(C)C)cc2)c(O)c1-c1ccccc1C1=Nc2ccccc2C1(C)C

Structure (SMILES): Cc1cc(C)cc(P(=O)(c2cc(C)cc(C)c2)C2C(C#N)=C(N)Oc3c(Br)cccc32)c1 (centres undefined)
- IC50 (A549 [6]): > 30 µM
- IC50 (NIH3T3): > 30 µM
- IC50 (HL-60): 9.8 µM
- IC50 (Bacillus subtilis): > 10 µM
- IC50 (Escherichia coli): > 10 µM

- IC50 (MDA-MB-231 [7]): 3.13 µM
- IC50 (T47D): 5.37 µM
- IC50 (MCF7 [8]): 3.92 µM
- IC50 (LoVo): 10.3 µM
- IC50 (HCT-116 [9]): 12.6 µM
Structure (SMILES): C=C1N(S(=O)(=O)c2ccc(C)cc2)c2ccccc2C1(C)N (racemic)

- IC50 (HeLa [5]): 26.7 µM
Structure (SMILES): Cc1nn(-c2ccccc2Cl)c(O)c1-c1ccccc1C1=Nc2ccccc2C1(C)C

- inhibition [10]: 57%
Structure (SMILES): COc1cc(OC)c(-c2cc(CC3c4ccccc4C(=O)N3c3ccc(Br)cc3)nc3ncnn23)c(OC)c1 (centres undefined)

Structure (SMILES): COC(=O)c1nc2nc(Oc3ccccc3)c(C#N)c(-c3ccc([N+](=O)[O-])cc3)c2c(N)c1C(=O)OC
- IC50 (A549 [11]): 8.24 µg/mL (≈ 16.5 µM)
- IC50 (MCF7 [12]): 7.57 µg/mL (≈ 15.2 µM)
- IC50 [13]: 51.3 µg/mL (≈ 103 µM)

Structure (SMILES): CC(C)C[C@H](NC(=O)[C@H](Cc1ccccc1)NC(=O)c1cnccn1)B(O)O [BORTEZOMIB]
- IC50 (HL-60): 7.42 µM

- IC50 (HeLa [14]): 1.54 µM
- IC50 (A549 [15]): 8.43 µM
- IC50 (HCT-116 [16]): 2.1 µM
Structure (SMILES): COc1ccccc1C1=C2C(=O)c3ccccc3C(=O)/N=C3/c4ccccc4C(=O)C23c2cccc3c2N1CC3 (centres undefined)

- IC50 (MDA-MB-231 [7]): 6.66 µM
- IC50 (T47D): 17.7 µM
- IC50 (MCF7 [8]): 16.1 µM
- IC50 (LoVo): > 25 µM
- IC50 (HCT-116 [9]): > 25 µM
Structure (SMILES): C=C1N(S(=O)(=O)c2ccc(C)cc2)c2ccccc2[C@@]1(C)N

- IC50 (HeLa [17]): 2.17 µM
- IC50 (A549 [18]): 11.9 µM
Structure (SMILES): OC1(C(F)(F)F)C=C(c2ccccc2)c2cc3ccccc3n21 (centres undefined)

Structure (SMILES): CCOC(=O)c1sc(-c2ccc(OCC(C)C)c(C(Nc3ccc(C(F)(F)F)cc3I)P(=O)(OCC)OCC)c2)nc1C (centres undefined)
- IC50 (MCF7 [1]): 14.1 µg/mL (≈ 18.7 µM)
- IC50 (DU-145): 3.34 µg/mL (≈ 4.43 µM)
- IC50 (MDA-MB-231 [2]): 8.54 µg/mL (≈ 11.3 µM)
- IC50 (HepG2 [3]): 26.1 µg/mL (≈ 34.6 µM)
- IC50 (HeLa [4]): 12.3 µg/mL (≈ 16.3 µM)

Structure (SMILES): O=NN(CCCl)C(=O)NCCCl [CARMUSTINE]
- IC50 (A549 [11]): 6.35 µg/mL (≈ 29.7 µM)
- IC50 (MCF7 [12]): 9.34 µg/mL (≈ 43.6 µM)
- IC50 [13]: 6.52 µg/mL (≈ 30.5 µM)

Structure (SMILES): Cc1cc(C)cc(P(=O)(c2cc(C)cc(C)c2)C2C(C#N)=C(N)Oc3ccc(F)cc32)c1 (centres undefined)
- IC50 (A549 [6]): > 30 µM
- IC50 (NIH3T3): > 30 µM
- IC50 (HL-60): 10.1 µM
- IC50 (Bacillus subtilis): 5.03 µM
- IC50 (Escherichia coli): > 10 µM

- inhibition [10]: 54%
Structure (SMILES): COc1ccc(N2C(=O)c3ccccc3C2Cc2cc(-c3c(OC)cc(OC)cc3OC)n3ncnc3n2)cc1 (centres undefined)

- IC50 [19]: 34.8 µM
- GI50 (A549 [20]): < 10 µg/mL
- GI50 (PC-3): < 10 µg/mL
- GI50 (MCF7 [21]): < 10 µg/mL
- GI50 (HepG2 [22]): < 10 µg/mL
- IC50 [23]: 32.1 µM
Structure (SMILES): CCc1cc(C(=O)c2ccccc2Cl)c(NC(c2cccs2)c2c(O)ccc3ccccc23)s1 (centres undefined)

- IC50 (LoVo): 0.74 µM
- IC50 (HCT-116 [9]): 10.1 µM
Structure (SMILES): O=C(CCCCCCC(=O)Nc1ccccc1)NO [VORINOSTAT]

- IC50 (HeLa [17]): 2.69 µM
- IC50 (A549 [18]): 6.34 µM
Structure (SMILES): Cc1c2n(c3ccc(F)cc13)C(O)(C(F)(F)F)C=C2c1ccccc1 (centres undefined)

- GI50 (A549 [20]): < 10 µg/mL
- GI50 (PC-3): < 10 µg/mL
- GI50 (MCF7 [21]): < 10 µg/mL
- GI50 (HepG2 [22]): < 10 µg/mL
Structure (SMILES): COc1cccc2c1C(=O)c1c(O)c3c(c(O)c1C2=O)C[C@@](O)(C(=O)CO)C[C@@H]3O[C@H]1C[C@H](N)[C@H](O)[C@H](C)O1 [DOXORUBICIN]
- IC50 (A549 [6]): 0.31 µM
- IC50 (NIH3T3): 5.65 µM
- IC50 [13]: 4.18 µg/mL (≈ 7.69 µM)

Structure (SMILES): COC(=O)c1nc2nc(Oc3ccccc3)c(C#N)c(-c3ccc(OC)cc3)c2c(N)c1C(=O)OC
- IC50 (A549 [11]): 10.1 µg/mL (≈ 20.9 µM)
- IC50 (MCF7 [12]): 48.2 µg/mL (≈ 99.6 µM)
- IC50 [13]: 51.3 µg/mL (≈ 106 µM)

- inhibition [10]: 45%
Structure (SMILES): COc1cc(OC)c(-c2cc(CC3c4ccccc4C(=O)N3c3ccc(C)cc3)nc3ncnn23)c(OC)c1 (centres undefined)
